Target: T1, androgen receptor (Homo sapiens, UniProt P10275, T878A)
T1 construct: endogenous in cells; host or cells: LNCaP cells
T1 sequence (P10275 1-920 T878A): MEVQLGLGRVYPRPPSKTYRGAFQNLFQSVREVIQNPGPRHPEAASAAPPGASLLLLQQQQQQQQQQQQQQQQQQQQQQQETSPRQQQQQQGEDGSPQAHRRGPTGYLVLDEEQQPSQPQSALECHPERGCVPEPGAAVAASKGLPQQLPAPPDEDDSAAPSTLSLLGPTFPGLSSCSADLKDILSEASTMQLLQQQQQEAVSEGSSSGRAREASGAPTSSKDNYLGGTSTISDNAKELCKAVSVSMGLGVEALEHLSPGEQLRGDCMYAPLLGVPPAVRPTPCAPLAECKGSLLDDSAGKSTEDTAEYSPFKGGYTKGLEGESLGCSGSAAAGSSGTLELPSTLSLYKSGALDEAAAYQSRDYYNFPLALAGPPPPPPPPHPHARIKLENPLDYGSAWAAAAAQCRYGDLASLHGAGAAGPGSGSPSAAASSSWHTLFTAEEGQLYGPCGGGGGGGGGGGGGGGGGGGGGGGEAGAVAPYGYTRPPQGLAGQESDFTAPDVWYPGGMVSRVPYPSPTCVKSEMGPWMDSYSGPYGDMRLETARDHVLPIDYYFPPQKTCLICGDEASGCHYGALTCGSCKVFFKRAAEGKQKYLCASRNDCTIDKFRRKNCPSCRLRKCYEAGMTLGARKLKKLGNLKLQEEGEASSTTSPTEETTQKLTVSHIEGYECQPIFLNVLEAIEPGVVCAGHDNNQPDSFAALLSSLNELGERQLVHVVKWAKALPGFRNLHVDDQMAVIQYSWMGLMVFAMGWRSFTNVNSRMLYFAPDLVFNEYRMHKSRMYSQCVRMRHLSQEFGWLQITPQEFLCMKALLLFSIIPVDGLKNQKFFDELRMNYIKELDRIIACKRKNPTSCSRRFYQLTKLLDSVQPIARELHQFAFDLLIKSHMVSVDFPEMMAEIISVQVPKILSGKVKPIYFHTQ
Assay: In-Cell-Western determination of androgen receptor degradation in LnCaP cells
Assay type: cell-based
Details: for Dmax: LNCaP; for DC50: concentration for half of the maximal degradation of AR in LnCaP cells, 24 hours treatment
Method: The determination evaluated the properties of the compounds in Lncap cells. Intracellular androgen receptor was determined by In-Cell-Western according to the determination steps described below.
In poly-D-Lysin pretreated 96-well cell culture plate (Corning 3599), LNcap cells were divided into 100 μL/well volume, and inoculated with 30,000 cells/well in LNcap cell assay medium [DMEM containing phenol red (Gibco catalog number: 11995065); fetal bovine serum FBS (Gibco catalog number: 10099141C)]. Cells were cultured for at least two days.
1. First treated cells with compound. Compounds were gradient diluted with DMSO and cell culture medium, so that DMSO contained in cell culture plates was diluted to 0.5% —polypropylene plates were used according to the following protocol: (1)(i) 200× stock plate in DMSO was prepared; (ii) 10 mM stock solution was diluted 1:4 with DMSO (10 μL stock solution+40 μL DMSO)=2000 μM, then entered into row 2; (iii) 1:4 (10 μL protac+40 μL DMSO) gradient dilution was performed from row 2 to row 9, and row 1 was reserved for […] reference compound and row 10 for DMSO. (iv) A total of 8 concentrations (final concentrations on the 200× plate were 2000 μM, 400 μM and 80 μM, etc.). (2) (i) 3× stock solution was prepared in the medium. (ii) 3 μL of 200× stock solution was transferred to 197 µL of culture medium (using 12-channel pipette, from line 1 to line 10), i.e. 3× stock solution plate. (iii) The stock solution plate was mixed evenly. (3) (i) The culture medium of […] cells was replaced with fresh culture medium, 100 μL volume culture medium. (ii) The well-mixed 3× stock solution was transferred to the cell culture plate (using a 12-channel pipette, and 50 μL of stock solution was transferred from line 1 to line 10). (iii) Cells were cultured for 24 hours.
2. The expression level of intracellular androgen receptor after compound treatment was […] and determined according to the following method.
(1)(i) Equal volume of 8% paraformaldehyde was added to the cell culture plate for cell fixation. The fixing solution in the cell plate was discarded and washed three times with PBS. (ii) Triton solution (1:1000 dilution of the stock solution) was prepared. The solution in the cell plate was discarded, and 200 μL of Triton diluent was added into each well. (iii) 2×blocking solution (1:4 dilution of 10×blocking stock solution) was prepared. The solution in the cell plate was discarded, and 100 μL of 2×blocking solution was added into each well. (iv) Primary antibody solution (Androgen receptor Rabbbit mAb, Cell Signaling Technology catalog number: 5153; 1:1000 dilution) was prepared. The solution in the cell plate was discarded, 100 μL volume of primary antibody diluent was added to each well, and incubated at 4° C. overnight. (v) The primary antibody solution was discarded and the cell plate was washed with 1×Wash buffer. (vi) Secondary antibody solution (GOAT Antirabbit IgG (H+L), HRP, Thermo catalog number: 31460; 1:5000 dilution) was prepared, and 100 μL volume of secondary antibody dilution was added to each well for incubation. (vii) The secondary antibody solution in the cell plate was discarded and the cell plate was washed with 1×Wash buffer. (viii) TMB chromogenic solution (BD catalog number: 550534) was prepared, and 100 μL chromogenic solution was added into each well. (ix) 50 μL volume of stop solution (BD catalog number: 550534) was added to each well. (x) The absorption values at OD 450 nm and 570 nm were read though EnVision. (2) (i) Normalized analysis was performed on the number of cells in each well. The solution in the cell plate was discarded, and washed with wash buffer for three times. (ii) Janus dilution (1:3 dilution) was prepared. (iii) 50 μL volume diluent was added to each well for incubation. (iv) The solution in the plate was discarded and washed with deionized water. […]

| SMILES | Dmax | DC50 |
| --- | --- | --- |
| CC1(C)C(=O)N(c2ccc(C#N)c(Cl)c2)c2ccc(-c3ccc(N4CC(CN5CCN(c6ccc7c(c6)C(=O)N(C6CCC(=O)NC6=O)C7=O)CC5)C4)cc3)cc21 (stereo not drawn) [Compound 1] | 82% | 90.3 nM |
| CC1(C)C(=O)N(c2ccc(C#N)c(Cl)c2)c2ccc(-c3ccc(N4CC(CN5CCN(c6ccc7c(c6)C(=O)N(C6CCC(=O)NC6=O)C7=O)CC5)C4)nc3F)cc21 (stereo not drawn) [Compound 14] | 93% | 66.3 nM |
| CC1(C)C(=O)N(c2ccc(C#N)c(C(F)(F)F)c2)c2ccc(-c3ccc(N4CC(CN5CCN(c6ccc7c(c6)C(=O)N(C6CCC(=O)NC6=O)C7=O)CC5)C4)cc3)cc21 (stereo not drawn) [Compound 3] | 89% | 87.1 nM |
